17 compounds from patent US11091478B2 (Fochon Pharmaceuticals, Ltd., priority 2017, dated 2021) can be followed below.

pIC50: −log10 of the molar value.

One assay deals with DOHH2 cells. Nature of the assay: Cell proliferation assay (MTS), DOHH2 cells, 120 h. The assay is classed as cell-based. The following applies: Homo sapiens, DOHH-2, 120 h. In a few lines:
(§1)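 Cells in RPMI-1640 with 10% FBS were seeded at 5000/well, left overnight at 37° C., 5% CO2, then exposed to compound at 10000 down to 1.5 nM (nine concentrations) for 72 h (RS4;11) or 120 h (DOHH2). Viability was read by MTS, 2 h, absorbance at 490/650 nm; IC50 calculated.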

A further assay deals with RS4;11 cells. Nature of the assay: Cell proliferation assay (MTS), RS4;11 cells, 72 h. The assay is classed as cell-based. The conditions noted are these: Homo sapiens, RS4-11, 72 h. The gist of the method:
as §1

For the compound `CC1(C)CCC(CN2CCN(c3ccc(C(=O)NS(=O)(=O)c4cc5c(c([N+](=O)[O-])c4)N[C@@H](Cc4ccncc4)CO5)c(Oc4cnc5[nH]ccc5c4)c3)CC2)=C(c2ccc(Cl)cc2)C1` [Example 2-164], the pIC50 was 7.80 in the assay on DOHH2 cells and 7.47 with RS4;11 cells.

Turning to `CC1(C)CCC(CN2CCN(c3ccc(C(=O)NS(=O)(=O)c4cc5c(c([N+](=O)[O-])c4)N[C@H](C4CCC(C)(O)CC4)CO5)c(Oc4cnc5[nH]ccc5c4)c3)CC2)=C(c2ccc(Cl)cc2)C1` (single isomer, unassigned) [Example 2-3A], the pIC50 in the assay on DOHH2 cells was 7.80; in the assay on RS4;11 cells it was 9.00.

With `CN(C)C[C@H]1Cc2cc(S(=O)(=O)NC(=O)c3ccc(N4CCN(CC5=C(c6ccc(Cl)cc6)CC(C)(C)CC5)CC4)cc3Oc3cnc4[nH]ccc4c3)cc([N+](=O)[O-])c2N1` [Example 1-10, (R)-2-((1H-pyrrolo[2,3-b]pyridin-5-yl)oxy)-4-(4-((4′-chloro-5,5-dimethyl-3,4,5,6-tetra-hydro-[1,1′-biphenyl]-2-yl)methyl)piperazin-1-yl)-N-((2-((dimethylamino)methyl)-7-nitroindolin-5-yl)sulfonyl)benzamide], the pIC50 is 7.48 in the assay with DOHH2 cells and 7.80 with RS4;11 cells.

As for `CC1(C)CCC(CN2CCN(c3ccc(C(=O)NS(=O)(=O)c4cc5c(c([N+](=O)[O-])c4)N[C@H](CCS(C)(=O)=O)CO5)c(Oc4cnc5[nH]ccc5c4)c3)CC2)=C(c2ccc(Cl)cc2)C1` [Example 2-64, (R)-2-((1H-pyrrolo[2,3-b]pyriidn-5-yl)oxy)-4-(4-((4′-chloro-5,5-dimethyl-3,4,5,6-tetra-hydro-[1,1′-biphenyl]-2-yl)methyl)piperazin-1-yl)-N-((3-(2-(methylsulfonyl)ethyl)-5-nitro-3,4-dihydro-2H-benzo[b][1,4]oxazin-7-yl)sulfonyl)benzamide], the pIC50 was 7.15 in the assay with DOHH2 cells and 7.60 in the assay on RS4;11 cells.

As to `C[C@@H]1CN(CC[C@H]2COc3cc(S(=O)(=O)NC(=O)c4ccc(N5CCN(CC6=C(c7ccc(Cl)cc7)CC(C)(C)CC6)CC5)cc4Oc4cnc5[nH]ccc5c4)cc([N+](=O)[O-])c3N2)CCN1C1COC1` [Example 2-49, 2-((1H-pyrrolo[2,3-b]pyridin-5-yl)oxy)-4-(4-((4′-chloro-5,5-dimethyl-3,4,5,6-tetrahydro-[1,1′-biphenyl]-2-yl)methyl)piperazin-1-yl)-N-(((S)-3-(2-((R)-3-methyl-4-(oxetan-3-yl)piperazin-1-yl)ethyl)-5-nitro-3,4-dihydro-2H-benzo[b][1,4]oxazin-7-yl)sulfonyl) benzamide], the pIC50 was 7.92 with DOHH2 cells and 7.80 in the assay on RS4;11 cells.

On to `CC1(C)CCC(CN2CCN(c3ccc(C(=O)NS(=O)(=O)c4cc5c(c([N+](=O)[O-])c4)N[C@H](CO[C@H]4CC[C@H](O)CC4)CO5)c(Oc4cnc5[nH]ccc5c4)c3)CC2)=C(c2ccc(Cl)cc2)C1` [Example 2-250, 2-((1H-pyrrolo[2,3-b]pyridin-5-yl)oxy)-4-(4-((4′-chloro-5,5-dimethyl-3,4,5,6-tetrahydro-[1,1′-biphenyl]-2-yl)methyl)piperazin-1-yl)-N-(((R)-3-((((1r,4R)-4-hydroxycyclo-hexyl)oxy)methyl)-5-nitro-3,4-dihydro-2H-benzo[b][1,4]oxazin-7-yl)sulfonyl)benzamide], for which the pIC50 in the assay with DOHH2 cells was 8.15; in the assay on RS4;11 cells it was 9.00.

Consider `CC1(C)CCC(CN2CCN(c3ccc(C(=O)NS(=O)(=O)c4cc5c(c([N+](=O)[O-])c4)N[C@@H](CCS(C)(=O)=O)CS5)c(Oc4cnc5[nH]ccc5c4)c3)CC2)=C(c2ccc(Cl)cc2)C1` [Example 3-18, (S)-2-((1H-pyrrolo[2,3-b]pyridin-5-yl)oxy)-4-(4-((4′-chloro-5,5-dimethyl-3,4,5,6-tetra-hydro-[1,1′-biphenyl]-2-yl)methyl)piperazin-1-yl)-N-((3-(2-(methylsulfonyl)ethyl)-5-nitro-3,4-dihydro-2H-benzo[b][1,4]thiazin-7-yl)sulfonyl)benzamide], for which the results for the pIC50 in the assay on DOHH2 cells and with RS4;11 cells were 7.27 and 7.70, respectively.

Consider `CC1(C)CCC(CN2CCN(c3ccc(C(=O)NS(=O)(=O)c4cc5c(c([N+](=O)[O-])c4)N[C@H](CCN4CCOCC4)CO5)c(Oc4cnc5[nH]ccc5c4)c3)CC2)=C(c2ccc(Cl)cc2)C1` [Example 2-2], for which the pIC50 is 8.10 in the assay with DOHH2 cells and 8.70 in the assay on RS4;11 cells.

`CN(C)CC[C@@H]1CSc2cc(S(=O)(=O)NC(=O)c3ccc(N4CCN(CC5=C(c6ccc(Cl)cc6)CC(C)(C)CC5)CC4)cc3Oc3cnc4[nH]ccc4c3)cc([N+](=O)[O-])c2N1` [Example 3-13, (R)-2-((1H-pyrrolo[2,3-b]pyridin-5-yl)oxy)-4-(4-((4′-chloro-5,5-dimethyl-3,4,5,6-tetra-hydro-[1,1′-biphenyl]-2-yl)methyl)piperazin-1-yl)-N-((3-(2-(dimethylamino)ethyl)-5-nitro-3,4-dihydro-2H-benzo[b][1,4]thiazin-7-yl)sulfonyl)benzamide]: the pIC50 with DOHH2 cells and with RS4;11 cells was 8.70 throughout.

As for `CC1(C)CCC(CN2CCN(c3ccc(C(=O)NS(=O)(=O)c4cc([N+](=O)[O-])c5[nH]c(CN6CCOCC6)cc5c4)c(Oc4cnc5[nH]ccc5c4)c3)CC2)=C(c2ccc(Cl)cc2)C1` [Example 1-21, 2-((1H-pyrrolo[2,3-b]pyridin-5-yl)oxy)-4-(4-((4′-chloro-5,5-dimethyl-3,4,5,6-tetra-hydro-[1,1′-biphenyl]-2-yl)methyl)piperazin-1-yl)-N-((2-(morpholino-methyl)-7-nitro-1H-indol-5-yl)sulfonyl)benzamide], the pIC50 in the assay with DOHH2 cells was 7.92; in the assay with RS4;11 cells, 9.00.

With `C[C@@H]1CN(CC[C@H]2COc3cc(S(=O)(=O)NC(=O)c4ccc(N5CCN(CC6=C(c7ccc(Cl)cc7)CC(C)(C)CC6)CC5)cc4Oc4cnc5[nH]ccc5c4)cc([N+](=O)[O-])c3N2)CCO1` [Example 2-52, 2-((1H-pyrrolo[2,3-b]pyridin-5-yl)oxy)-4-(4-((4′-chloro-5,5-dimethyl-3,4,5,6-tetrahydro-[1,1′-biphenyl]-2-yl)methyl)piperazin-1-yl)-N-(((S)-3-(2-((R)-2-methylmorpholino)ethyl)-5-nitro-3,4-dihydro-2H-benzo[b][1,4]oxazin-7-yl)sulfonyl)benzamide], the pIC50 is 7.51 with DOHH2 cells and 7.60 with RS4;11 cells.

For `CN(C)CC[C@@H]1COc2cc(S(=O)(=O)NC(=O)c3ccc(N4CCN(CC5=C(c6ccc(Cl)cc6)CC(C)(C)CC5)CC4)cc3Oc3cnc4[nH]ccc4c3)cc([N+](=O)[O-])c2N1` [Example 2-16, (R)-2-((1H-pyrrolo[2,3-b]pyridin-5-yl)oxy)-4-(4-((4′-chloro-5,5-dimethyl-3,4,5,6-tetra-hydro-[1,1′-biphenyl]-2-yl)methyl)piperazin-1-yl)-N-((3-(2-(dimethylamino)ethyl)-5-nitro-3,4-dihydro-2H-benzo[b][1,4]oxazin-7-yl)sulfonyl)benzamide], the pIC50 with DOHH2 cells was 7.47; in the assay with RS4;11 cells it was 8.40.

Consider `C[C@H]1CN(CC[C@H]2COc3cc(S(=O)(=O)NC(=O)c4ccc(N5CCN(CC6=C(c7ccc(Cl)cc7)CC(C)(C)CC6)CC5)cc4Oc4cnc5[nH]ccc5c4)cc([N+](=O)[O-])c3N2)CCN1C1COC1` [Example 2-50], for which the pIC50 was 7.66 in the assay with DOHH2 cells and 8.05 in the assay with RS4;11 cells.

For `CC1(C)CCC(CN2CCN(c3ccc(C(=O)NS(=O)(=O)c4cc5c(c([N+](=O)[O-])c4)N[C@@H](CO)CO5)c(Oc4cnc5[nH]ccc5c4)c3)CC2)=C(c2ccc(Cl)cc2)C1` [Example 2-220, (S)-2-((1H-pyrrolo[2,3-b]pyridin-5-yl)oxy)-4-(4-((4′-chloro-5,5-dimethyl-3,4,5,6-tetra-hydro-[1,1′-biphenyl]-2-yl)methyl)piperazin-1-yl)-N-((3-(hydroxymethyl)-5-nitro-3,4-dihydro-2H-benzo[b][1,4]oxazin-7-yl)sulfonyl)benzamide], the pIC50 was 7.44 in the assay with DOHH2 cells and 8.10 in the assay with RS4;11 cells.

As to `C[C@H]1COc2cc(S(=O)(=O)NC(=O)c3ccc(N4CCN(CC5=C(c6ccc(Cl)cc6)CC(C)(C)CC5)CC4)cc3Oc3cnc4[nH]ccc4c3)cc([N+](=O)[O-])c2N1` [Example 2-111, (S)-2-((1H-pyrrolo[2,3-b]pyridin-5-yl)oxy)-4-(4-((4′-chloro-5,5-dimethyl-3,4,5,6-tetra-hydro-[1,1′-biphenyl]-2-yl)methyl)piperazin-1-yl)-N-((3-methyl-5-nitro-3,4-dihydro-2H-benzo[b][1,4]oxazin-7-yl)sulfonyl)benza-mide], the results for the pIC50 in the assay on DOHH2 cells and with RS4;11 cells were 7.59 and 7.55, respectively.

As for `CC1(C)CCC(CN2CCN(c3ccc(C(=O)NS(=O)(=O)c4cc5c(c([N+](=O)[O-])c4)N[C@@H](c4ccc(C#N)cc4)CO5)c(Oc4cnc5[nH]ccc5c4)c3)CC2)=C(c2ccc(Cl)cc2)C1` [Example 2-206, (S)-2-((1H-pyrrolo[2,3-b]pyridin-5-yl)oxy)-4-(4-((4′-chloro-5,5-dimethyl-3,4,5,6-tetra-hydro-[1,1′-biphenyl]-2-yl)methyl)piperazin-1-yl)-N-((3-(4-cyanophenyl)-5-nitro-3,4-dihdyro-2H-benzo[b][1,4]oxazin-7-yl)sulfo-nyl)benzamide], the results for the pIC50 in the assay on DOHH2 cells and with RS4;11 cells were 6.51 and 7.68, respectively.

Regarding `CC1(C)CCC(c2ccc(Cl)cc2)=C(CN2CCN(c3ccc(C(=O)NS(=O)(=O)c4cc5c(c([N+](=O)[O-])c4)N[C@@H](C4CCOCC4)CO5)c(Oc4cnc5[nH]ccc5c4)c3)CC2)C1` [Example 2-212, (S)-2-((1H-pyrrolo[2,3-b]pyridin-5-yl)oxy)-4-(4-((4′-chloro-4,4-dimethyl-3,4,5,6-tetra-hydro-[1,1′-biphenyl]-2-yl)methyl)piperazin-1-yl)-N-((5-nitro-3-(tetrahydro-2H-pyran-4-yl)-3,4-dihydro-2H-benzo[b][1,4]oxazin-7-yl)sulfonyl)benzamide], the pIC50 in the assay with DOHH2 cells is 7.57; in the assay on RS4;11 cells it was 8.10.
